Source: PubChem BioAssay (NCI)
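All cell lines were grown in 96-well plates and treated with compound for 48 hours. TGI: total growth inhibition.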

Experiments:
Assay in all cases: NCI-60 cell line screen, 48 h
SNB-75 CNS = test system: SNB-75 CNS
OVCAR-8 ovarian = test system: OVCAR-8 ovarian
SK-OV-3 ovarian = test system: SK-OV-3 ovarian
HCT-116 colon = test system: HCT-116 colon
MOLT-4 leukemia = test system: MOLT-4 leukemia
SNB-19 CNS = test system: SNB-19 CNS
HS 578T breast = test system: HS 578T breast
A549 NSCLC = test system: A549 NSCLC
OVCAR-3 ovarian = test system: OVCAR-3 ovarian
MDA-N = test system: MDA-N
UO-31 renal = test system: UO-31 renal
U251 CNS = test system: U251 CNS
MCF7 breast = test system: MCF7 breast
A498 renal = test system: A498 renal
TK-10 renal = test system: TK-10 renal
M14 melanoma = test system: M14 melanoma
IGROV1 ovarian = test system: IGROV1 ovarian
RPMI-8226 leukemia = test system: RPMI-8226 leukemia
SF-539 CNS = test system: SF-539 CNS
K-562 leukemia = test system: K-562 leukemia
SK-MEL-2 melanoma = test system: SK-MEL-2 melanoma
T-47D breast = test system: T-47D breast
DU-145 prostate = test system: DU-145 prostate
COLO 205 colon = test system: COLO 205 colon
MALME-3M melanoma = test system: MALME-3M melanoma
BT-549 breast = test system: BT-549 breast
UACC-62 melanoma = test system: UACC-62 melanoma
786-0 renal = test system: 786-0 renal
NCI-H23 lung = test system: NCI-H23 lung
MDA-MB-435 = test system: MDA-MB-435
HT29 colon = test system: HT29 colon
SF-295 CNS = test system: SF-295 CNS
SF-268 CNS = test system: SF-268 CNS
PC-3 prostate = test system: PC-3 prostate
EKVX NSCLC = test system: EKVX NSCLC
UACC-257 melanoma = test system: UACC-257 melanoma
SW-620 colon = test system: SW-620 colon
HCT-15 colon = test system: HCT-15 colon
NCI-H226 lung = test system: NCI-H226 lung
MDA-MB-231 breast = test system: MDA-MB-231 breast
KM12 colon = test system: KM12 colon
SK-MEL-5 melanoma = test system: SK-MEL-5 melanoma
HCC-2998 colon = test system: HCC-2998 colon
SK-MEL-28 melanoma = test system: SK-MEL-28 melanoma
HOP-62 NSCLC = test system: HOP-62 NSCLC
NCI/ADR-RES ovarian = test system: NCI/ADR-RES ovarian
OVCAR-4 ovarian = test system: OVCAR-4 ovarian
SR leukemia = test system: SR leukemia
LOX IMVI melanoma = test system: LOX IMVI melanoma
OVCAR-5 ovarian = test system: OVCAR-5 ovarian
SN12C renal = test system: SN12C renal
NCI-H460 lung = test system: NCI-H460 lung
ACHN renal = test system: ACHN renal
RXF 393 renal = test system: RXF 393 renal
CCRF-CEM leukemia = test system: CCRF-CEM leukemia
CAKI-1 renal = test system: CAKI-1 renal
NCI-H522 lung = test system: NCI-H522 lung
HOP-92 NSCLC = test system: HOP-92 NSCLC
HL-60(TB) leukemia = test system: HL-60(TB) leukemia

CN(C)CCNC(=O)c1cccc2c(NC(CCCN=C(N)N)C(=O)O)c3ccccc3[n+](C)c12 (stereo not drawn)
TGI (SNB-75 CNS): > 100 µM | TGI (OVCAR-8 ovarian): > 100 µM | TGI (SK-OV-3 ovarian): > 100 µM | TGI (HCT-116 colon): > 100 µM | TGI (MOLT-4 leukemia): > 100 µM | TGI (SNB-19 CNS): > 100 µM | TGI (HS 578T breast): > 100 µM | TGI (A549 NSCLC): > 100 µM | TGI (OVCAR-3 ovarian): > 100 µM | TGI (MDA-N): > 100 µM | TGI (UO-31 renal): > 100 µM | TGI (U251 CNS): > 100 µM | TGI (MCF7 breast): > 100 µM | TGI (A498 renal): > 100 µM | TGI (TK-10 renal): > 100 µM | TGI (M14 melanoma): > 100 µM | TGI (IGROV1 ovarian): > 100 µM | TGI (RPMI-8226 leukemia): > 100 µM | TGI (SF-539 CNS): > 100 µM | TGI (K-562 leukemia): > 100 µM | TGI (SK-MEL-2 melanoma): > 100 µM | TGI (T-47D breast): > 100 µM | TGI (DU-145 prostate): > 100 µM | TGI (COLO 205 colon): > 100 µM | TGI (MALME-3M melanoma): > 100 µM | TGI (BT-549 breast): > 100 µM | TGI (UACC-62 melanoma): > 100 µM | TGI (786-0 renal): > 100 µM | TGI (NCI-H23 lung): > 100 µM | TGI (MDA-MB-435): > 100 µM | TGI (HT29 colon): > 100 µM | TGI (SF-295 CNS): > 100 µM | TGI (SF-268 CNS): 92.6 µM | TGI (PC-3 prostate): > 100 µM | TGI (EKVX NSCLC): > 100 µM | TGI (UACC-257 melanoma): > 100 µM | TGI (SW-620 colon): > 100 µM | TGI (HCT-15 colon): > 100 µM | TGI (NCI-H226 lung): 94.5 µM | TGI (MDA-MB-231 breast): > 100 µM | TGI (KM12 colon): > 100 µM | TGI (SK-MEL-5 melanoma): > 100 µM | TGI (HCC-2998 colon): > 100 µM | TGI (SK-MEL-28 melanoma): > 100 µM | TGI (HOP-62 NSCLC): > 100 µM | TGI (NCI/ADR-RES ovarian): 80.9 µM | TGI (OVCAR-4 ovarian): > 100 µM | TGI (SR leukemia): > 100 µM | TGI (LOX IMVI melanoma): > 100 µM | TGI (OVCAR-5 ovarian): > 100 µM | TGI (SN12C renal): > 100 µM | TGI (NCI-H460 lung): > 100 µM | TGI (ACHN renal): > 100 µM

COC(=O)CCC1(C)C2CCC1/C(=N/O)C2 (stereo not drawn)
TGI (SNB-75 CNS): > 100 µM | TGI (OVCAR-8 ovarian): > 100 µM | TGI (SK-OV-3 ovarian): > 100 µM | TGI (HCT-116 colon): > 100 µM | TGI (MOLT-4 leukemia): > 100 µM | TGI (RXF 393 renal): > 100 µM | TGI (CCRF-CEM leukemia): > 100 µM | TGI (SNB-19 CNS): > 100 µM | TGI (HS 578T breast): > 100 µM | TGI (A549 NSCLC): > 100 µM | TGI (OVCAR-3 ovarian): > 100 µM | TGI (MDA-N): > 100 µM | TGI (UO-31 renal): > 100 µM | TGI (U251 CNS): > 100 µM | TGI (MCF7 breast): > 100 µM | TGI (A498 renal): > 100 µM | TGI (TK-10 renal): > 100 µM | TGI (M14 melanoma): > 100 µM | TGI (CAKI-1 renal): > 100 µM | TGI (IGROV1 ovarian): > 100 µM | TGI (RPMI-8226 leukemia): > 100 µM | TGI (K-562 leukemia): > 100 µM | TGI (SK-MEL-2 melanoma): > 100 µM | TGI (T-47D breast): > 100 µM | TGI (DU-145 prostate): > 100 µM | TGI (COLO 205 colon): > 100 µM | TGI (MALME-3M melanoma): > 100 µM | TGI (BT-549 breast): > 100 µM | TGI (UACC-62 melanoma): > 100 µM | TGI (786-0 renal): > 100 µM | TGI (NCI-H23 lung): > 100 µM | TGI (MDA-MB-435): > 100 µM | TGI (HT29 colon): > 100 µM | TGI (SF-295 CNS): > 100 µM | TGI (SF-268 CNS): > 100 µM | TGI (PC-3 prostate): > 100 µM | TGI (EKVX NSCLC): > 100 µM | TGI (UACC-257 melanoma): > 100 µM | TGI (SW-620 colon): > 100 µM | TGI (HCT-15 colon): > 100 µM | TGI (NCI-H226 lung): > 100 µM | TGI (MDA-MB-231 breast): > 100 µM | TGI (KM12 colon): > 100 µM | TGI (SK-MEL-5 melanoma): > 100 µM | TGI (HCC-2998 colon): > 100 µM | TGI (SK-MEL-28 melanoma): > 100 µM | TGI (NCI-H522 lung): > 100 µM | TGI (HOP-62 NSCLC): > 100 µM | TGI (NCI/ADR-RES ovarian): > 100 µM | TGI (OVCAR-4 ovarian): > 100 µM | TGI (SR leukemia): > 100 µM | TGI (OVCAR-5 ovarian): > 100 µM | TGI (SN12C renal): > 100 µM | TGI (ACHN renal): > 100 µM

CC(C)(O)C1CC[C@]2(C)CC[C@]3(C)[C@H](CC[C@@H]4[C@@]5(C)CC[C@H](O)C(C)(C)[C@@H]5CC[C@]43C)[C@@H]12 (stereo partly drawn)
TGI (SNB-75 CNS): 45.7 µM | TGI (OVCAR-8 ovarian): > 100 µM | TGI (SK-OV-3 ovarian): 49.3 µM | TGI (HCT-116 colon): 59.4 µM | TGI (MOLT-4 leukemia): > 100 µM | TGI (RXF 393 renal): > 100 µM | TGI (CCRF-CEM leukemia): > 100 µM | TGI (SNB-19 CNS): > 100 µM | TGI (HS 578T breast): 68.1 µM | TGI (A549 NSCLC): > 100 µM | TGI (OVCAR-3 ovarian): 50.7 µM | TGI (MDA-N): > 100 µM | TGI (UO-31 renal): > 100 µM | TGI (U251 CNS): > 100 µM | TGI (MCF7 breast): > 100 µM | TGI (TK-10 renal): 53.3 µM | TGI (M14 melanoma): 95.4 µM | TGI (CAKI-1 renal): 45.6 µM | TGI (IGROV1 ovarian): 85.8 µM | TGI (RPMI-8226 leukemia): > 100 µM | TGI (SF-539 CNS): 55.4 µM | TGI (K-562 leukemia): > 100 µM | TGI (SK-MEL-2 melanoma): 62.5 µM | TGI (T-47D breast): 66.2 µM | TGI (DU-145 prostate): 57.9 µM | TGI (COLO 205 colon): 92.2 µM | TGI (MALME-3M melanoma): 57.7 µM | TGI (BT-549 breast): 60.9 µM | TGI (UACC-62 melanoma): > 100 µM | TGI (786-0 renal): 78.1 µM | TGI (NCI-H23 lung): > 100 µM | TGI (HOP-92 NSCLC): 44.1 µM | TGI (MDA-MB-435): > 100 µM | TGI (HT29 colon): > 100 µM | TGI (SF-295 CNS): 57.6 µM | TGI (SF-268 CNS): > 100 µM | TGI (PC-3 prostate): > 100 µM | TGI (EKVX NSCLC): 44.5 µM | TGI (UACC-257 melanoma): 50.2 µM | TGI (HCT-15 colon): > 100 µM | TGI (NCI-H226 lung): > 100 µM | TGI (MDA-MB-231 breast): > 100 µM | TGI (KM12 colon): 89.3 µM | TGI (SK-MEL-5 melanoma): > 100 µM | TGI (HCC-2998 colon): 51.9 µM | TGI (SK-MEL-28 melanoma): 67.7 µM | TGI (NCI-H522 lung): 73.2 µM | TGI (HOP-62 NSCLC): 84.3 µM | TGI (NCI/ADR-RES ovarian): 82.4 µM | TGI (OVCAR-4 ovarian): 78.3 µM | TGI (SR leukemia): > 100 µM | TGI (OVCAR-5 ovarian): 75.9 µM | TGI (SN12C renal): > 100 µM | TGI (NCI-H460 lung): > 100 µM | TGI (ACHN renal): 71.3 µM | TGI (HL-60(TB) leukemia): > 100 µM
